Test results reported in patent US12433873B2, “Microtubule polymerization inhibitor prodrugs and methods of using the same” (University of Maryland, Baltimore, priority 2017, dated 2025).
Entries after “also recorded” stand apart in the source; their conditions may differ.

Key:
mdx mice [1] = assay: In vivo nerve evoked torque and eccentric injury of the gastrocnemius muscle in mdx mice; design: species or system mouse; settings: 20 eccentric contractions of gastrocnemius, FIG. 2D
Method: FIGS. 2A-2D illustrate that targeting microtubule density in vivo is solely sufficient to decrease contraction-induced injury in mdx mice. Nerve evoked torque and eccentric injury of the gastrocnemius muscle in vivo (FIG. 2A). […] Normalized torque records of the initial (time=0; wild-type in black, mdx in red) and 20th (grey) eccentric contractions (FIG. 2C).
Skeletal Muscle Function. Evan's blue dye (EBD) (5 μg/μl solution in PBS; 5 μl/g body weight) can be injected I.P. 24 hrs before the assay. The in vivo assessment of the nerve evoked isometric force vs. stimulation frequency relationship of the gastrocnemius can be determined as described in the art. The maximal isometric force (post hoc normalized to estimated cross sectional area) can be taken as the measure of functional quality of the muscle. […]
Susceptibility to contraction injury (skeletal muscle) can be assessed across each treatment cohort. As in FIG. 2, the % force deficit after 20 eccentric contractions of the gastrocnemius muscle can be determined. […] Thirty minutes after the last eccentric contraction, blood (orbital sinus) can be collected and analyzed for creatine kinase (CK) activity. […] After the trials, the muscle tissue can be processed and % EBD positive fibers can be used to quantitate the extent of muscle damage at rest (uninjured leg) or with injury.

mdx muscle fibers = assay: X-ROS, Ca2+ signaling and microtubule density in mdx muscle fibers in vitro; assay type: cell-based, mouse
Description: FIGS. 1A-1E illustrate that microtubules underlie dysfunction in DMD. Aggregate DFF signals from WT (Black; n=5) and mdx (Red; n=6) muscle fibers (FIG. 1A). Mean values from A show a significant increase in X-ROS in the mdx (*p<0.05) that is blunted by colchicine (FIG. 1B). X-ROS leads to Ca^2+ influx that is blocked by microtubule depolymerization (FIG. 1C). Microtubule density is elevated in mdx fibers and reduced by colchicine (FIGS. 1D and 1E).
In murine DMD (mdx), it has been discovered that disease-driven alterations in microtubule network density and properties underscore the deleterious excess of Nox2-ROS and Ca^2+ signals in skeletal muscle and heart. Using colchicine, a drug that promotes microtubule depolymerization, it has been shown that reducing microtubule density normalized the dysregulated ROS and Ca^2+ signaling in DMD muscle fibers in vitro (see FIG. 1). […] The significance of these pre-clinical discoveries was bolstered by transcriptional evidence (RNASeq) for microtubule excess in muscle biopsy samples from affected DMD patients.

mdx mice [2] = assay: Isoproterenol cardiac stress test in mdx mice; assay type: in vivo, mouse
Method: FIGS. 5A-5D illustrate that colchicine blunts isoproterenol-induced cardiac damage in mdx and prevents cardiac arrhythmias. Wild-type and mdx mice were injected with Evan's blue dye one day prior then underwent an isoproterenol cardiac stress test and heart rate measured. […] Conversely, mdx mice cannot upregulate their heart rate to the same extent (˜2 fold) and only do so for a short period (30-45 min) before suffering severe arrhythmias and cardiac death, with only 10% survival.
Isoproterenol Cardiac Stress and Sarcolemmal Damage of the Heart. Catecholaminergic work-load stress induces atrial fibrillation (AF), ventricular tachycardia (VT) and sudden cardiac death (SCD) in mdx mice and this can be prevented by colchicine treatment (FIG. 5). To assess if colchicine pro-drugs prevent AF, VT and SCD, Evan's blue dye (EBD) (5 μg/μl solution in PBS; 5 μl/g body weight) can be injected I.P. 24 hrs before the assay. Mice are first anesthetized with sodium pentobarbital, and the heart rate monitored by a single-lead electrocardiogram. Isoproterenol is then used to pharmacologically increase the level of mechanical stress imposed on the heart. The mice are killed 3 hours after the administration of isoproterenol and the heart mounted in cryomatrix, sectioned and assessed for sarcolemmal damage.

OCY-293 cells = assay: In vitro microtubule destabilization in OCY-293 cells stably expressing GFP-tubulin; assay type: cell-based; settings: 10-120 minutes, 0.3-100 μM
Method: Cell treatment: OCY-293 cells stably expressing GFP-tubulin were cultured in 96-well plates at 37° C. in modified DMEM. […] Control cells were treated with vehicle. DAPI was added to each well to identify the nuclei. At each time point, cells were fixed with 4% paraformaldehyde and stored at 4° C. in the dark until imaging.
Imaging and Analysis: Cells were imaged to assess microtubule structure using fluorescence microscopy (Nikon TIe) with 5 images taken in different locations of each well. The images were digitized in two channels (GFP to visualize tubulin, and therefore microtubules; and DAPI to visualize nuclei). The microtubule area was traced, and nuclei were counted using predictive software (Nikon Elements v4.51) via unbiased automated measurements of each image in each of the wells. The microtubule area was normalized to the number of nuclei.

[3] = cited from earlier work

Compound: COc1cc(C(C)=O)ccc1O [apocynin]
- force loss / contraction injury after eccentric contractions (mdx mice [1]): significant protection from force loss

Compound: COc1cc2c(c(OC)c1OC)-c1ccc(OC)c(=O)cc1[C@@H](NC(C)=O)CC2 [colchicine]
- Microtubule density in mdx fibers (mdx muscle fibers; FIGS. 1D and 1E): reduced
- dysregulated ROS and Ca2+ signaling in DMD muscle fibers (mdx muscle fibers; in vitro, FIG. 1): normalized
- X-ROS (DFF signal) increase in mdx muscle fibers (mdx muscle fibers; mdx muscle fibers, FIG. 1B): blunted
- force loss / contraction injury after eccentric contractions (mdx mice [1]): reduced contraction injury; also recorded: significant protection from force loss
- cardiac death and arrhythmia (mdx mice [2]; mdx mice after isoproterenol cardiac stress): prevents cardiac death and arrhythmia
- survival (mdx mice [2]; mdx mice after isoproterenol cardiac stress (untreated mdx 10% survival)): 90%
- cardiac integrity (histological analysis, Evan's blue) (mdx mice [2]; mdx mice, FIGS. 5C and 5D): significant preservations of cardiac integrity
- increase in cardiac workload (mdx mice [2]; mdx mice, compared to untreated animals): supports the increase in cardiac workload significantly
- microtubule depolymerization (microtubule area normalized to number of nuclei) (OCY-293 cells): rapid depolymerization at low concentrations
- therapeutic window: lethal dose ([3]; in vivo): 16-30 × therapeutic dose
- absorption, median ([3]; oral): 45%
- half-life ([3]; orally dosed): 1 to 2.7 h
- time of peak plasma concentration ([3]; orally dosed): 30 to 90 min

Compound: COc1cc2c(c(OC)c1OC)-c1ccc(OC)c(=O)cc1[C@@H](N(C)C(=O)OC(C)OC(C)=O)CC2 (stereo partly shown) [compound 7]
- microtubule depolymerization (microtubule area normalized to number of nuclei) (OCY-293 cells): delayed and reduced depolymerization at all concentrations

Compound: CCCCCCCCCCCCCCCC(=O)OCOC(=O)N(C)[C@H]1CCc2cc(OC)c(OC)c(OC)c2-c2ccc(OC)c(=O)cc21 [compound 10]
- microtubule depolymerization (microtubule area normalized to number of nuclei) (OCY-293 cells): dampened depolymerization at higher concentrations only
